Assay results: ChEMBL document CHEMBL2439965, “Dialkylimidazole inhibitors of Trypanosoma cruzi sterol 14α-demethylase as anti-Chagas disease agents” (Bioorg Med Chem Lett, 2013)

Legend:
[1] = Cytotoxicity against human CRL8155 cells; type: cell-based
Trypanosoma cruzi = experiment: microbe, parasite or virus in culture; conditions: Tulahuen, NIH3T3, 168 h
Description: Antitrypanosomal activity against Trypanosoma cruzi Tulahuen infected in 3T3 cells after 7 days by beta-galactosidase assay

physchem = conditions: octanol/water
Description: Lipophilicity, log P of the compound

[2] = Inhibition of recombinant Trypanosoma cruzi sterol 14-alpha-demethylase by spectrophotometry

SMILES	EC50 (Trypanosoma cruzi) [nM]	logP (physchem)	Kd [2] [nM]	IC50 [1] [nM]
Nc1ccc(-c2cc(NCc3cncn3Cc3ccc(-c4ccccc4)cc3N)ccc2Cl)cc1	0.3	5.1	–	12900
Cc1ccc(NCc2cncn2Cc2ccc(-c3ccccc3)cc2N)cc1-c1c(F)cccc1F	0.4	6.2	–	> 5000
Nc1ccc(-c2cc(NCc3cncn3Cc3ccc(-c4ccccc4)cc3)ccc2-c2nc3ccccc3s2)cc1	1.6	7.6	–	27500
Nc1cc(-c2ccccc2)ccc1Cn1cncc1CNc1ccc(F)c(-c2ccccc2)c1	0.8	5.5	–	18800
Cc1cc(NCc2cncn2Cc2ccc(-c3ccccc3)cc2N)ccc1Cl	0.6	4.4	–	12900
CC1CCN(CCOc2ccc(NCc3cncn3Cc3ccc(-c4ccccn4)cc3N)cc2-c2ccccc2)CC1	5.8	5.1	–	5270
Oc1ccc(-c2cc(NCc3cncn3Cc3ccc(-c4ccccc4)cc3)ccc2-c2nc3ccccc3s2)cc1	11	8.1	–	20000
Oc1cc(-c2ccccc2)ccc1Cn1cncc1CNc1ccc(Cl)c(-c2ccccc2)c1	5.9	6.5	–	21500
COc1ccc(NCc2cncn2Cc2ccc(-c3ccccc3)cc2N)nc1-c1ccccc1	0.2	5	490	> 5000
c1ccc(-c2ccc(Cn3cncc3CNc3ccc(NCCN4CCCCC4)c(-c4ccccc4)c3)cc2)cc1	194	6.6	–	10700
Oc1cc(-c2ccccc2)ccc1Cn1cncc1CNc1ccc(-c2nc3ccccc3s2)c(-c2ccccc2)c1	89.3	8	–	–
Nc1cc(-c2ccccc2)ccc1Cn1cncc1CNc1ccc(Cl)c(-c2ccccc2N2CCCC2)c1	87	6.5	–	–
c1ccc(-c2ccc(Cn3cncc3CNc3ccc(-c4nc5ccccc5s4)c(-c4ccccc4)c3)cc2)cc1	20	8.4	–	–
Fc1ccc(NCc2cncn2Cc2cccc3cc[nH]c23)cc1-c1ccccc1	333	4.8	–	–

The next lines start with results.

EC50 (Trypanosoma cruzi) [nM]	logP (physchem)	Kd [2] [nM]	SMILES	IC50 [1] [nM]
11.7	6.6	–	Fc1ccc(NCc2cncn2Cc2ccc(-c3ccccc3)cc2)cc1-c1c(F)cccc1F	17500
1.1	5.3	–	Nc1cc(-c2ccccc2)ccc1Cn1cncc1CNc1ccc(Cl)c(N2CCCCC2)c1	> 5000
97.4	5.9	–	CC1CCN(CCOc2ccc(NCc3cncn3Cc3ccc(-c4ccccc4)cc3)cc2-c2ccccc2)CC1	4470
> 1000	4.3	–	CCN1CCC(Cn2cncc2CNc2ccc(Cl)c(-c3ccccc3)c2)CC1	17400
5	3.5	–	Nc1cc(-c2ccccc2)ccc1Cn1cncc1CNc1ccc(Cl)c(-n2ccnc2)c1	14600
272	3.8	–	Cc1cc(NCc2cncn2Cc2ccc(F)cc2F)ccc1F	–
